In PMC6887723, “Design and Synthesis of 4-(Heterocyclic Substituted Amino)-1H-Pyrazole-3-Carboxamide Derivatives and Their Potent Activity against Acute Myeloid Leukemia (AML)” (International Journal of Molecular Sciences, 2019):

Tests used:
[1] = target: T1, FLT3 (Homo sapiens, UniProt P36888); assay: FLT3 kinase activity assay (Hot-Spot); type: biochemical; conditions: 10 μM ATP; mean ± SD, three independent experiments
T1 construct: purchased Reaction Biology Corp
T1 sequence (P36888 27-993): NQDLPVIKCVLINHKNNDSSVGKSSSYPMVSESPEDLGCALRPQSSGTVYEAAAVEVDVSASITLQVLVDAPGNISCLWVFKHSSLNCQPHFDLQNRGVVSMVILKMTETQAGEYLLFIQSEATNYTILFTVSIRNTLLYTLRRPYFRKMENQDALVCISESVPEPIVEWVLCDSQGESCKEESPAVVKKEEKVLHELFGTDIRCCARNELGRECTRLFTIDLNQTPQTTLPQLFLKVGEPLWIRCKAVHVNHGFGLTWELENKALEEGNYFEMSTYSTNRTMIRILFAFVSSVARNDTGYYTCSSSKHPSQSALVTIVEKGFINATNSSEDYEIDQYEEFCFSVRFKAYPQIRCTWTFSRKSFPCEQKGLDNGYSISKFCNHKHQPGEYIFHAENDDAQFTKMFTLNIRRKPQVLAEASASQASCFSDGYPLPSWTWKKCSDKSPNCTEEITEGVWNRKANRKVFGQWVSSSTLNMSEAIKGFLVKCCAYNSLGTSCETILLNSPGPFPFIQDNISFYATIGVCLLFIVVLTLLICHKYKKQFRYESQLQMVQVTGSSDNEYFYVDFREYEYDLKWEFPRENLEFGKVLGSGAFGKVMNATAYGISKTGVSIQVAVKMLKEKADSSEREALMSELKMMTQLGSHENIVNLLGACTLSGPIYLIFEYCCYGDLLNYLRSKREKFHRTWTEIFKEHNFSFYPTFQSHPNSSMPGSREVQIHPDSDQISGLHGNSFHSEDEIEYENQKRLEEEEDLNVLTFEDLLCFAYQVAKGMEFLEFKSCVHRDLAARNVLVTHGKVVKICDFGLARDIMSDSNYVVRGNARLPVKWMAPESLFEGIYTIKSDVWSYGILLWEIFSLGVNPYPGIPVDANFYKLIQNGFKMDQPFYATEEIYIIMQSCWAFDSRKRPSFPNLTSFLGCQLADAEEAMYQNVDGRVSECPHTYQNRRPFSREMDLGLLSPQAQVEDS
Protocol: Activities of kinases were determined using Hot-SpotSM kinase assay which was performed by Reaction Biology Corp. (Malvern PA, USA) as described previously.

[2] = test system: phosphorylation of the retinoblastoma protein (Rb); assay: Western blot, phosphorylation of Rb in MV4-11 cells; type: cell-based, human; conditions: MV4-11, 4 h; dose-dependent; at 1 μM comparable with AT-7519
Protocol: Analysis of pFLT3, pSTAT5, pERK, pAKT, and pRb in vitro: to determine the levels of pFLT3, pSTAT5, pERK, pAKT, and pRb, cells were seeded in a 6-well cell culture plate at a density of 400,000 cells per well for MV4-11 in a total volume of 1800 μL and incubated overnight in medium containing 10% fetal bovine serum (Life Technologies, Rockville, MD, USA). Then 200 μL of serially diluted compounds were added to each well the next day. Cell lysates were harvested after 4 h and pFLT3, pSTAT5, pERK, pAKT, or pRb were quantified using assay kits for FLT3/Phospho-FLT3Tyr589/591, pSTAT5 (Tyr694)/total STAT5, pRb (Ser807)/total Rb (Nanjin keyGen Biotech Company, Nanjing, China) following the manufacturer’s protocols.

`O=C(Nc1ccc(N2CCNCC2)cc1)c1n[nH]cc1Nc1ncnc2sc3c(c12)CCC3` [Compound 8t] was tested. Which IC50 [1] did it give?
Its IC50 is 0.089 ± 0.013 nM.

What about the “phosphorylation of the retinoblastoma protein (Rb)” value [2] of the same compound?
The value was “inhibited”.
